The record followed here is PubChem BioAssay AID2683 (Broad Institute, 2010).

pEC50: −log10 of the molar value. Several values for one entry are separate records, joined by “and”; a condition that tells them apart may be missing. Equal entries are not always repeated. Activity calls are given as the source filed them.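 Rule for the calls: active = rising-signal curve whose EC50 is at most tenfold above the top concentration tested; inconclusive = flat fit with activity between 30% and 70%, or invalid fit; inactive = the rest.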

This test has as its system S. cerevisiae SKY197-pL101 polyadenylation reporter, beta-gal luminescence, 9 h. The test can be described thus: elevated beta-gal reporter luminescence in yeast – S. cerevisiae SKY197-pL101, polyadenylation inhibitor project, dose response (AID 2683).
Take `N#C/C(=C\c1ccc([N+](=O)[O-])o1)c1nc2ccccc2[nH]1`: the pEC50 (in general, −log10 of the EC50, conventionally taken in molar units) is 4.96.

In the case of `N#C/C(=C\c1ccco1)c1nc2ccccc2[nH]1`, the EC50 (in general, the concentration giving half of the maximal effect) was > 12 µM (inactive).

`N#C/C(=C/c1ccc([N+](=O)[O-])o1)c1nc2ccccc2[nH]1`: the pEC50 is 5.08.

In the case of `Cc1cccc2[nH]c(/C(C#N)=C/c3ccc([N+](=O)[O-])o3)nc12`, the pEC50 is 5.23.

`Cc1ccc2nc(/C(C#N)=C/c3ccc(C)o3)[nH]c2c1`: the EC50 was > 12 µM (inactive).

On to `N#C/C(=C\c1cccc([N+](=O)[O-])c1)c1nc2ccccc2[nH]1`, for which the EC50 was > 12 µM (inactive).

In the case of `Cc1ccc2nc(/C(C#N)=C/c3ccc([N+](=O)[O-])o3)[nH]c2c1`, the pEC50 was 5.19 and 5.14.
